Laboratory results from US12599676B2, “Cytotoxic imidazo[1,2-A]pyridine compounds and their use in therapy” (MyricX Pharma Limited, priority 2022, dated 2026).

Assays:
[1] = tested on: LU2511 (human lung large cell undifferentiated carcinoma); assay: Cell cytotoxicity CellTiter-Glo, LU2511; type: cell-based
Method: (§1) Cells were seeded in 96-well microplates and treated with compounds or cisplatin (as a positive control) at 9 increasing concentrations in technical triplicate. […] On day 1, 90 μL of various cell suspensions with the number of cells ranging from 5000-8000 cells/well were seeded into wells of a 96-well plate (Corning). The number of cells to be seeded was previously determined. • 2. All 96-wells plates with cells were placed in an incubator overnight at 37° C. with 5% CO2. • 3. On day 2, cells were observed under a microscope ensuring the cells treated with vehicle control were in good condition. • 4. A dilution series of the test compounds and cisplatin were prepared at 10× the final concentrations required. 10 μL/well of 10× compound solution was added to the corresponding plates. The final volume was 100 μL/well for all the plates. Final DMSO concentration was 0.1%. • 5. On day 5 (after 72 hours of incubation), 50 μL of CTG reagent was added to each well. • 6. Contents were mixed for 5 minutes on an orbital shaker to facilitate cell lysis. • 7. The plate was allowed to incubate at room temperature for 10 minutes to stabilize luminescent signals. […]

[2] = tested on: LYXFDLBC2835 (patient-derived xenograft lymphoma); assay: Cell cytotoxicity CellTiter-Glo, LYXFDLBC2835; type: cell-based
Method: (§2) Cells were seeded in 96-well microplates and treated with compounds or cisplatin (as a positive control) at 9 increasing concentrations in technical triplicate. […] On day 1, 90 μL of various cell suspensions with the number of cells ranging from 5000-8000 cells/well were seeded into wells of a 96-well plate (Corning). The number of cells to be seeded was previously determined. • 2. All 96-wells plates with cells were placed in an incubator overnight at 37° C. with 5% CO2. • 3. On day 2, cells were observed under a microscope ensuring the cells treated with vehicle control were in good condition. • 4. A dilution series of the test compounds and cisplatin were prepared at 10× the final concentrations required. 10 μL/well of 10× compound solution was added to the corresponding plates. The final volume was 100 μL/well for all the plates. Final DMSO concentration was 0.1%. • 5. On day 5 (after 72 hours of incubation), 50 μL of CTG reagent was added to each well. • 6. Contents were mixed for 5 minutes on an orbital shaker to facilitate cell lysis. • 7. The plate was allowed to incubate at room temperature for 10 minutes to stabilize luminescent signals.
(§3) The effects of Comparator Compound 1 and certain Example compounds on the viability of various cell lines (LYXFDLBC2835, LYXFDLBC4009 and LYXFDLBC411 (patient-derived xenograft lymphoma), HT1080 (human fibrosarcoma), CA46 (human B cell lymphoma), RKO (human colon carcinoma), NCI-H1703 (human lung squamous cell carcinoma), MX-1 (human breast carcinoma), DU4475 (human breast carcinoma), LU2511 (human lung large cell undifferentiated carcinoma), LU0884 (human lung squamous cell carcinoma)), Panc-1 (human pancreatic carcinoma), MCF-7 (human breast cancer), SW480 (human colon adenocarcinoma) and HCC1806 (human breast ductal carcinoma) were performed using the standard CellTiter-Glo assay (CTG, Promega) as described in Biological Example 2. Compounds which show efficacy in these assays are expected to be useful as agents for treating or preventing hyperproliferative disorders such as cancer.

[3] = tested on: LYXFDLBC4113 (patient-derived xenograft lymphoma); assay: Cell cytotoxicity CellTiter-Glo, LYXFDLBC4113; type: cell-based
Method: as §2, §3

[4] = tested on: LU0884 (human lung squamous cell carcinoma); assay: Cell cytotoxicity CellTiter-Glo, LU0884; type: cell-based
Method: as §1

[5] = tested on: LYXFDLBC4009 (patient-derived xenograft lymphoma); assay: Cell cytotoxicity CellTiter-Glo, LYXFDLBC4009; type: cell-based
Method: as §2, §3

[6] = tested on: SU-DHL-10 cell line (human B cell lymphoma); assay: Cell cytotoxicity in SU-DHL-10 cell line (CellTiter-Glo); type: cell-based; conditions: Homo sapiens, SU-DHL10, 72 h, 72 h treatment, CTG
In short: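 Cells seeded at 5000-8000/well, dosed next day with 9 concentrations in triplicate (DMSO 0.1% final) and incubated 72 h at 37° C, 5% CO2. Viability by CellTiter-Glo luminescence normalised to vehicle (100%) and medium blank; IC50 from sigmoidal nonlinear regression.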

Caco-2 cells = assay: Caco-2 cell permeability assay; type: in vitro ADME; conditions: apical to basal Papp, 2 μM, pH 7.4, 2.5 h
In short: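 Caco-2 monolayers grown 10 days were dosed at 2 μM (1% DMSO) on the donor side in HBSS/10 mM HEPES pH 7.4, for both AB and BA directions, then incubated 2.5 h at 37 °C without shaking. Donor and acceptor samples were quantified by LC-MS/MS to give Papp. Wells that failed a Lucifer Yellow integrity check (>1% passage) were excluded.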

## CNCc1cnc2ccc(-c3ccc(F)c(F)c3OCCc3c(C(O)C(C)(C)C)nn(C)c3C)cn12 (single isomer, unassigned) [Example 12, 1-(4-(2-(2,3-difluoro-6-(3-((methylamino)methyl)imidazo[1,2-a]pyridin-6-yl)phenoxy)ethyl)-1,5-dimethyl-1H-pyrazol-3-yl)-2,2-dimethylpropan-1-ol]
[1]
  IC50: 0.07 nM
[2]
  IC50: 10 nM
[3]
  IC50: 3 nM
[4]
  IC50: 3 nM
[5]
  IC50: 3 nM
[6]
  IC50: 0.6 nM
Caco-2 cells
  Caco-2 A-B: 0.95 ×10⁻⁶ cm/s

## Cc1c(CCOc2cc(Cl)ccc2-c2ccc3ncc(CCN)n3c2)c(C(=O)N(C)C)nn1C [Comparator Compound 1, 4-(2-{2-[3-(2-aminoethyl)imidazo[1,2-a]pyridin-6-yl]-5-chlorophenoxy}ethyl)-N,N,1,5-tetramethyl-1H-pyrazole-3-carboxamide, reference compound]
[1]
  IC50: 9 nM
[2]
  IC50: 130 nM
[3]
  IC50: 890 nM
[4]
  IC50: 44 nM
[5]
  IC50: 1540 nM
[6]
  IC50: 5 nM
Caco-2 cells
  Caco-2 A-B: 0.0 ×10⁻⁶ cm/s
